Measured values published in US12390440B2, “Immunomodulating trifluoromethyl-aminal azalides” (Zoetis Services LLC, priority 2020, dated 2025).

What was measured:
IL-1β = test: Bovine whole blood assay, IL-1β; assay type: cell-based; conditions: overstimulation of IL-1β, perceived cellular toxicity concentration;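 also: compound concentration at which rising IL-1β release signals cytotoxicity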
Experimental: (§1) (protected from light) for 30 minutes.

E. coli = test: MIC, E. coli; conditions: Escherichia coli
M. haemolytica = test: MIC, M. haemolytica; conditions: Mannheimia haemolytica
S. aureus = test: MIC, S. aureus; conditions: Staphylococcus aureus
P. multocida = test: MIC, P. multocida; conditions: Pasteurella multocida
IL-6 = test: Bovine whole blood assay, IL-6; assay type: cell-based; conditions: Bos taurus, fresh whole bovine blood, LPS 1 μg/mL
Experimental: as §1

TNF-α = test: Bovine whole blood assay, LPS-induced TNF-α; assay type: cell-based; conditions: Bos taurus, fresh whole bovine blood, LPS 1 μg/mL
Experimental: as §1

[1] = M. haemolytica 46571, bovine efficacy challenge strain
[2] = P. multocida 46572, murine efficacy challenge strain

Compound	IL-1β OS of LPS (IL-1β)	MIC (E. coli; E. coli 25922)	MIC (E. coli; E. coli W3110)	MIC (M. haemolytica; M. haemolytica 12726)	MIC (M. haemolytica; M. haemolytica 33396)	MIC (M. haemolytica; [1])	MIC (S. aureus)	MIC (P. multocida; P. multocida 43137)	MIC (P. multocida; [2])	IC50 (IL-6)	IC50 (TNF-α)
CC[C@H]1OC(=O)[C@H](C)[C@@H](O[C@H]2C[C@@](C)(OC)[C@](O)(CNCCN3CCCC3=O)[C@H](C)O2)[C@H](C)[C@@H](O[C@@H]2O[C@H](C)C[C@H]3[C@H]2OC(C(F)(F)F)N3C)[C@](C)(O)C[C@@H](C)CN[C@H](C)[C@@H](O)[C@]1(C)O (stereo partly drawn) [Example A-12, (2R,3S,4R,5R,8R,10R,11R,12S,13S,14R)-11-(((3aR,4S,6R,7aS)-1,6-dimethyl-2-(trifluoromethyl)hexahydro-2H-pyrano[4,3-d]oxazol-4-yl)oxy)-2-ethyl-3,4,10-trihydroxy-13-(((2R,4R,5S,6S)-5-hydroxy-4-methoxy-4,6-dimethyl-5-(((2-(2-oxopyrrolidin-1-yl)ethyl)amino)methyl)tetrahydro-2H-pyran-2-yl)oxy)-3,5,8,10,12,14-hexamethyl-1-oxa-6-azacyclopentadecan-15-one]	40 µM	> 64 µg/mL	> 64 µg/mL	> 64 µg/mL	> 64 µg/mL	> 64 µg/mL	> 64 µg/mL	> 64 µg/mL	> 64 µg/mL	24 µM	45 µM
CC[C@H]1OC(=O)[C@H](C)[C@@H](O[C@H]2C[C@@](C)(OC)[C@](O)(CN3CCOCC3)[C@H](C)O2)[C@H](C)[C@@H](O[C@@H]2O[C@H](C)C[C@H]3[C@H]2OC(C(F)(F)F)N3C)[C@](C)(O)C[C@@H](C)CN[C@H](C)[C@@H](O)[C@]1(C)O (stereo partly drawn) [Example B-1, (2R,3S,4R,5R,8R,10R,11R,12S,13S,14R)-11-(((3aR,4S,6R,7aS)-1,6-dimethyl-2-(trifluoromethyl)hexahydro-2H-pyrano[4,3-d]oxazol-4-yl)oxy)-2-ethyl-3,4,10-trihydroxy-13-(((2R,4R,5S,6S)-5-hydroxy-4-methoxy-4,6-dimethyl-5-(morpholinomethyl)tetrahydro-2H-pyran-2-yl)oxy)-3,5,8,10,12,14-hexamethyl-1-oxa-6-azacyclopentadecan-15-one]	13 µM	> 64 µg/mL	> 64 µg/mL	> 64 µg/mL	> 64 µg/mL	> 64 µg/mL	> 64 µg/mL	> 64 µg/mL	> 64 µg/mL		10 µM
